# Reference: publication PMC4161151 (Journal of Medicinal Chemistry, 2014)
# Several values for one entry are separate records, joined by “and”; a condition that tells them apart may be missing. Equal entries are not always repeated. Where two headings read alike, the source gives them in different places.
# Columns and labels:
# κ opioid receptor [1] = target: T1, κ opioid receptor (Homo sapiens, UniProt P41145); details: for Ke κ, U69,593: cloned human κ receptor, mean (SE), at least three independent experiments; for μ/κ: selectivity for κ relative to μ; for μ/κ / δ/κ: ratio of Ke values; for δ/κ: selectivity for κ relative to δ
# T1 sequence (P41145 whole entry): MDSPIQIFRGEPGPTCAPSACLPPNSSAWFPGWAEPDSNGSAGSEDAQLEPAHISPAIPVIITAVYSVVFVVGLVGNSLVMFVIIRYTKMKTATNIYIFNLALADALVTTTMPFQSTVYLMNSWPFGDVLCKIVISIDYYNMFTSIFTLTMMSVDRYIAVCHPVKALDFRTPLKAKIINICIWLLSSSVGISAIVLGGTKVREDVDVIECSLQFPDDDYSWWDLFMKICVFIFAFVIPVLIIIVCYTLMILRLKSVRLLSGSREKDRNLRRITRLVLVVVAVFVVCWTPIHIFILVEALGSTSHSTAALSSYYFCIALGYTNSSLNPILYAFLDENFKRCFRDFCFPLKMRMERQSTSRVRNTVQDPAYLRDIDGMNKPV
# δ opioid receptor [2] = target: T2, δ opioid receptor (Homo sapiens, UniProt P41143); details: for behaviour at the δ receptor: δ opioid receptor [35S]GTPγS assay, result in words; for Ke δ, DPDPE: cloned human δ receptor
# T2 sequence (P41143 whole entry): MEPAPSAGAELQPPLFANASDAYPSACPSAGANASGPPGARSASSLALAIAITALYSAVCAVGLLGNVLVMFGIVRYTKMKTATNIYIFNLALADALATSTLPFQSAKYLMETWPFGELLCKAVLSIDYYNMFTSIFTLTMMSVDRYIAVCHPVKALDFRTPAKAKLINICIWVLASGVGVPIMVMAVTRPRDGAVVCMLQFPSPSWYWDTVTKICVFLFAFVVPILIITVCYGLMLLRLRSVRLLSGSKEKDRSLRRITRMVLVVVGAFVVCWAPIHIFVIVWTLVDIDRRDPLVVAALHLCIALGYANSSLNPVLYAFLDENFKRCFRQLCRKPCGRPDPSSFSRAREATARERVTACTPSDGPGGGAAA
# μ opioid receptor [3] = target: T3, μ opioid receptor (Homo sapiens, UniProt P35372); details: cloned human μ receptor; mean (SE), at least three independent experiments
# T3 sequence (P35372 whole entry): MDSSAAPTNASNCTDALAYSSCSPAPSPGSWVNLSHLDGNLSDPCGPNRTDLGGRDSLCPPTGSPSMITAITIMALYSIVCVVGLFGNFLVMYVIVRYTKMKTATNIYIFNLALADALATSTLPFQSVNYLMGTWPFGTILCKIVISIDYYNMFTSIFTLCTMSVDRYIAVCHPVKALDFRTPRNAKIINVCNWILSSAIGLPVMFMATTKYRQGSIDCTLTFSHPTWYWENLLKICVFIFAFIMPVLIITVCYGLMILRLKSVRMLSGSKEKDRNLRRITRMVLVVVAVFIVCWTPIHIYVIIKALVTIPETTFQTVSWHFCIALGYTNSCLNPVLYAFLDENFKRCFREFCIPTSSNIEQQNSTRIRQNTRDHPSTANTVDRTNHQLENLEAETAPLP
# MDCK-MDR1 cells = assay: MDCK-MDR1 permeability; details: percent transported from the optical to basal side
# hERG channel = hERG channel (Homo sapiens, UniProt Q12809); assay: hERG [3H]astemizole radioligand displacement assay
# Sequence of hERG channel (Q12809 whole entry): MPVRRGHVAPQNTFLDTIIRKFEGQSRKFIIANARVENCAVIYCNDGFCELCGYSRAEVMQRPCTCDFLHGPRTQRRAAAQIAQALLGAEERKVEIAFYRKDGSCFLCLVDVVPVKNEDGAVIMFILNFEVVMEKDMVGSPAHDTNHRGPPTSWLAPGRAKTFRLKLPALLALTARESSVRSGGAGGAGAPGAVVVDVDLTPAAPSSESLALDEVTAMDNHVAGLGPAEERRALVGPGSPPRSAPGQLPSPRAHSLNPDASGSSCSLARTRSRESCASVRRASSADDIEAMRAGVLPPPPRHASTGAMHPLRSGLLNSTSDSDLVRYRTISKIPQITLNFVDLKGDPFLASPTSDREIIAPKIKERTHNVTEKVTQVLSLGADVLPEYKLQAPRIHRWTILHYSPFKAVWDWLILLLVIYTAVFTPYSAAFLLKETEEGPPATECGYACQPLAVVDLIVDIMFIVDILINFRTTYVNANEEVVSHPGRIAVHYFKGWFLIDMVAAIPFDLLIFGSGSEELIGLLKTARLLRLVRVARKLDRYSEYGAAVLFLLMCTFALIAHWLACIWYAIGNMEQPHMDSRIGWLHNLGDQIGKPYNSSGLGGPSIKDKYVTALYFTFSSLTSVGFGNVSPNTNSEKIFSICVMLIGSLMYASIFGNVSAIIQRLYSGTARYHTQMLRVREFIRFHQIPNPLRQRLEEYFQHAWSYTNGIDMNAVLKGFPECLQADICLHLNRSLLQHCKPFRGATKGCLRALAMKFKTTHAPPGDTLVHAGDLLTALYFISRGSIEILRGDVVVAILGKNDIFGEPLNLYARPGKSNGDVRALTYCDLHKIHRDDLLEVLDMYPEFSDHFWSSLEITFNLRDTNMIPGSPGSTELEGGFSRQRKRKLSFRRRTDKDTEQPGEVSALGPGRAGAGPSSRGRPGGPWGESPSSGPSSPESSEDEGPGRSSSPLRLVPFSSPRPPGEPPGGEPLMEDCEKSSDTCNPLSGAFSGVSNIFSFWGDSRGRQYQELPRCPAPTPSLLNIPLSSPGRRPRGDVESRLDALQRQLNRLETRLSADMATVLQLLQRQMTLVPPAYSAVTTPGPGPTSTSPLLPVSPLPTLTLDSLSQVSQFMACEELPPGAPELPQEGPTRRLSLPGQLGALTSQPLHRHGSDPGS
# κ opioid receptor [4] = target: T1, κ opioid receptor; assay: biochemical
# [5] = Kinetic solubility, 96-well plate assay; format: physicochemical; details: for solubility at 90 min: phosphate buffer
# δ opioid receptor [6] = target: T2, δ opioid receptor; assay: biochemical
# μ opioid receptor [7] = target: T3, μ opioid receptor; assay: biochemical
# [8] = Parallel artificial membrane permeability assay; format: in vitro ADME; details: 4 h; for PAMPA pH 5.5, percent transported: pH 5.5, 10 μM; for PAMPA pH 7.4, percent transported: pH 7.4, 10 μM
# δ opioid receptor [9] = details: read-out: Ki δ; cited from earlier work
# [10] = mean (SE), at least three independent experiments
Molecule,"Ke κ, U69,593 (κ opioid receptor [1])",μ/κ (κ opioid receptor [1]),"Ke μ, DAMGO (μ opioid receptor [3])",δ/κ (κ opioid receptor [1]),"Ke δ, DPDPE (δ opioid receptor [2]; [10])",plasma stability (% of parent) (Plasma stability),S9 stability (% of parent) (S9 stability),"MDCK, percent transported (MDCK-MDR1 cells)",also measured
"(3R)-7-Fluoro-N-[(1S)-1-{[(3R,4R)-4-(3-Hydroxyphenyl)-3,4-dimethylpiperidine-1-yl]methyl}-2-methylpropyl]-1,2,3,4-tetrahydroisoquinoline-3-carboxamide [Compound 10]",2.20 ± 0.47 nM,3.5,7.7 ± 0.9 nM,,,,,,behaviour at the δ receptor (δ opioid receptor [2]): weak inverse agonist
"(3R)-7-Fluoro-N-[(1S)-1-{[(3R,4R)-4-(3-Fluorophenyl)-3,4-dimethylpiperidin-1-yl]methyl}-2-methylpropyl]-1,2,3,4-tetrahydroisoquinoline-3-carboxamide [Compound 12]",2.22 nM and 2.22 ± 0.47 nM,162,360 ± 63 nM,,,,,,behaviour at the δ receptor (δ opioid receptor [2]): weak inverse agonist
"(3R)-N-[(1S)-1-{[(3R,4R)-4-(3-Hydroxyphenyl)-3,4-dimethylpiperidin-1-yl]methyl}-2-methylpropyl]-7-1,2,3,4-tetrahydroisoquinoline-3-carboxamide [Compound 9]",4.3 ± 2 nM,3.7,16 ± 5 nM,37,158 nM and 158 ± 49 nM,,,,
"CC(C)[C@@H](CN1CC[C@@](C)(c2cccc(O)c2)[C@@H](C)C1)NC(=O)[C@H]1Cc2ccc(C(N)=O)cc2CN1 [Compound 13, (3R)-N^3-[(1S)-1-{[(3R,4R)-4-(3-Hydroxyphenyl)-3,4-dimethylpiperidin-1-yl]methyl}-2-methylpropyl]-1,2,3,4-tetrahydroisoquinoline-3,7-dicarboxamide]",,355,,6550,,84.7 % of parent,91.5 % of parent,17%,"Ki (hERG channel): > 10000 nM; Kb (κ opioid receptor [4]): 0.02 ± 0.005 nM; solubility at pH 7.4 ([5]; pH 7.4): > 20%; solubility at 90 min ([5]; pH 3): 77 µM; solubility at 90 min ([5]; pH 7.4): 38 µM; Kb (δ opioid receptor [6]): 131 ± 23 nM; Kb (μ opioid receptor [7]): 7.09 ± 2.58 nM; PAMPA pH 5.5, percent transported [8]: 39.1%; PAMPA pH 7.4, percent transported [8]: 28.3%"
"CC(C)[C@@H](CN1CC[C@@](C)(c2cccc(O)c2)[C@@H](C)C1)NC(=O)[C@H]1Cc2ccc(O)cc2CN1 [JDTic, (3R)-1,2,3,4-tetrahydro-7-hydroxy-N-[(1S)-1-[[(3R,4R)-4-(3-hydroxyphenyl)-3,4-dimethyl-1-piperidinyl]methyl]-2-methylpropyl]-3-isoquinolinecarboxamide, reference compound]",,,,,,97 % of parent,76 % of parent,11%,
"(3R)-N-[(1S)-1-{[(3R,4R)-3,4-Dimethyl-4-phenylpiperidin-1-yl]methyl}-2-methylpropyl]-1,2,3,4-tetrahydroisoquinoline-3-carboxamide [Compound 11]",16 ± 7 nM,45,724 ± 146 nM,>188,,,,,"Ke δ, DPDPE (δ opioid receptor [2]): >3000 nM"
"(3R)-N-[(1S)-1-{[(3R,4R)-4-(3-Aminophenyl)-3,4-dimethylpiperidin-1-yl]methyl}-2-methylpropyl]-7-hydroxy-1,2,3,4-tetrahydroisoquinoline-3-carboxamide [Compound 8]",0.25 ± 0.09 nM,42,10.6 nM and 10.6 ± 3.6 nM,7600,1899 ± 657 nM,,,,
"(3R)-N-[(1S)-1-{[(3R,4R)-4-(3-Bromophenyl)-3,4-dimethylpiperidin-1-yl]methyl}-2-methylpropyl]-7-hydroxy-1,2,3,4-tetrahydroisoquinoline-3-carboxamide [Compound 7]",0.268 nM and 0.268 ± 0.01 nM,25,6.56 ± 0.44 nM,2200,594 ± 160 nM,,,,
C[C@H]1CN(CC[C@H](O)C2CCCCC2)CC[C@@]1(C)c1cccc(O)c1 [LY255582],,,,,,,,,Ki (δ opioid receptor [9]): 4.8 nM
"(3R)-N^3-[(1S)-1-{[(3R,4R)-3,4-Dimethyl-4-phenylpiperidin-1-yl]methyl}-2-methylpropyl]-1,2,3,4-tetrahydroisoquinoline-3,7-dicarboxamide [Compound 15]",0.041 ± 0.006 nM,163,6.70 ± 2.1 nM,2700,111 ± 29 nM,,,,
"CC(C)[C@@H](CN1CC[C@@](C)(c2cccc(C(N)=O)c2)[C@@H](C)C1)NC(=O)[C@H]1Cc2ccc(C(N)=O)cc2CN1 [Compound 14, (3R)-N^3-[(1S)-1-{[(3R,4R)-4-(3-Carbamoylphenyl)-3,4-dimethylpiperidin-1-yl]methyl}-2-methylpropyl]-1,2,3,4-tetrahydroisoquinoline-3,7-dicarboxamide]",,230,,4700,,55.3 % of parent,90.9 % of parent,14%,"Ki (hERG channel): > 10000 nM; Kb (κ opioid receptor [4]): 0.11 ± 0.02 nM; solubility at pH 7.4 ([5]; pH 7.4): > 20%; solubility at 90 min ([5]; pH 3): 100 µM; solubility at 90 min ([5]; pH 7.4): 81 µM; Kb (δ opioid receptor [6]): 517 ± 52 nM; Kb (μ opioid receptor [7]): 25.3 ± 7.89 nM; PAMPA pH 5.5, percent transported [8]: 36.4%; PAMPA pH 7.4, percent transported [8]: 32.2%"
"CC(C)[C@@H](CN1CC[C@@](C)(c2ccccc2)[C@@H](C)C1)NC(=O)[C@H]1Cc2ccc(O)cc2CN1 [Compound 4, (3R)-N-[(1S)-1-{[(3R,4R)-3,4-Dimethyl-4-phenylpiperidin-1-yl]methyl}-2-methylpropyl]-7-hydroxy-1,2,3,4-tetrahydroisoquinoline-3-carboxamide]",,,,,,67.0 % of parent,82.0 % of parent,27%,
"(3R)-N-[(1S)-1-{[(3R,4R)-4-(3-Chlorophenyl)-3,4-dimethylpiperidin-1-yl]methyl}-2-methylpropyl]-7-hydroxy-1,2,3,4-tetrahydroisoquinoline-3-carboxamide [Compound 6]",0.039 ± 0.001 nM,175,6.81 ± 2.6 nM,17600,685 ± 99 nM,,,,
